Measured values from ChEMBL document CHEMBL1201862, “PubChem BioAssay data set” (2004).
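In this assay, cells in 96-well plates receive the compound at five concentrations for 48 hours. Endpoints are linearly interpolated between the surrounding concentrations. At the GI50, growth is halved.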 The source made the active and inactive calls. Rule as the data show it: active = GI50 up to about 1.1 µM and inactive = higher.

How the values were obtained:
Assay in all cases: DTP human tumour cell line panel, 48 h
SF-539 = test system: SF-539
OVCAR-5 = test system: OVCAR-5
SNB-19 = test system: SNB-19
EKVX = test system: EKVX
MOLT-4 = test system: MOLT-4
MDA-MB-435 = test system: MDA-MB-435
NCI/ADR-RES = test system: NCI/ADR-RES
T47D = test system: T47D
Hs-578T = test system: Hs-578T
HT-29 = test system: HT-29
SNB-75 = test system: SNB-75
SK-MEL-2 = test system: SK-MEL-2
A498 = test system: A498
HOP-62 = test system: HOP-62
UO-31 = test system: UO-31
COLO 205 = test system: COLO 205
UACC-257 = test system: UACC-257
HL-60 = test system: HL-60
SF-268 = test system: SF-268

SMILES	GI50 (SF-539)	GI50 (OVCAR-5)	GI50 (SNB-19)	GI50 (EKVX)	GI50 (MOLT-4)	GI50 (MDA-MB-435)	GI50 (NCI/ADR-RES)	GI50 (T47D)	GI50 (Hs-578T)	GI50 (HT-29)	GI50 (SNB-75)	GI50 (SK-MEL-2)	GI50 (A498)	GI50 (HOP-62)	GI50 (UO-31)	GI50 (COLO 205)	GI50 (UACC-257)	GI50 (HL-60)	GI50 (SF-268)
C[C@@H](Cl)[C@H]1CCCN(Cc2ccc(Br)cc2)C1	> 12.5 µM (inactive)	> 12.5 µM (inactive)	> 12.5 µM (inactive)	> 12.5 µM (inactive)	> 12.5 µM (inactive)	> 12.5 µM (inactive)	> 12.5 µM (inactive)	> 12.5 µM (inactive)	> 12.5 µM (inactive)	> 12.5 µM (inactive)	> 12.5 µM (inactive)	> 12.5 µM (inactive)	> 12.5 µM (inactive)	> 12.5 µM (inactive)	> 12.5 µM (inactive)	> 12.5 µM (inactive)	> 12.5 µM (inactive)	> 12.5 µM (inactive)	> 12.5 µM (inactive)
Cc1ccc(-c2n[nH]c(=O)[nH]2)cc1	> 100 µM (inactive)	> 100 µM (inactive)	> 100 µM (inactive)	45.8 µM (inactive)	> 100 µM (inactive)	> 100 µM (inactive)	> 100 µM (inactive)	> 46.5 µM (inactive)	> 100 µM (inactive)	> 100 µM (inactive)	> 100 µM (inactive)	> 100 µM (inactive)	> 100 µM (inactive)	> 100 µM (inactive)	> 100 µM (inactive)	> 100 µM (inactive)	> 66.1 µM (inactive)	> 100 µM (inactive)	> 100 µM (inactive)
c1cc(CNCCN2CCNCC2)ccn1	> 100 µM (inactive)	> 100 µM (inactive)	> 100 µM (inactive)	> 100 µM (inactive)	> 100 µM (inactive)	> 100 µM (inactive)	> 100 µM (inactive)	> 100 µM (inactive)	> 100 µM (inactive)	> 100 µM (inactive)	> 100 µM (inactive)	> 100 µM (inactive)	> 100 µM (inactive)	> 100 µM (inactive)	> 100 µM (inactive)	> 100 µM (inactive)	> 100 µM (inactive)	–	> 100 µM (inactive)
CCOC(=O)c1ccc(OCc2nc3cc(C(F)(F)F)ccc3nc2-c2ccccc2)cc1	> 100 µM (inactive)	> 100 µM (inactive)	> 100 µM (inactive)	> 100 µM (inactive)	> 100 µM (inactive)	> 100 µM (inactive)	> 100 µM (inactive)	> 100 µM (inactive)	> 100 µM (inactive)	> 100 µM (inactive)	> 100 µM (inactive)	> 100 µM (inactive)	> 100 µM (inactive)	> 100 µM (inactive)	> 100 µM (inactive)	> 100 µM (inactive)	> 100 µM (inactive)	> 100 µM (inactive)	> 100 µM (inactive)
O=C(NNc1cn[nH]c(=O)n1)c1cccc2nc3ccccc3nc12	46.7 µM (inactive)	> 100 µM (inactive)	74 µM (inactive)	35.8 µM (inactive)	11 µM (inactive)	> 100 µM (inactive)	> 100 µM (inactive)	> 100 µM (inactive)	63.2 µM (inactive)	> 100 µM (inactive)	–	34.9 µM (inactive)	> 100 µM (inactive)	–	–	> 100 µM (inactive)	> 100 µM (inactive)	22.4 µM (inactive)	38.7 µM (inactive)
Cc1cc(Br)cc(C)c1NC(=O)C(=O)Nn1c(S)nc2ccccc2c1=O	> 100 µM (inactive)	> 100 µM (inactive)	78.9 µM (inactive)	> 100 µM (inactive)	> 100 µM (inactive)	> 100 µM (inactive)	> 100 µM (inactive)	> 100 µM (inactive)	> 100 µM (inactive)	> 100 µM (inactive)	> 100 µM (inactive)	> 100 µM (inactive)	> 100 µM (inactive)	> 100 µM (inactive)	> 100 µM (inactive)	–	> 100 µM (inactive)	> 100 µM (inactive)	> 100 µM (inactive)
O=[N+]([O-])c1ccc(SN=S=NSc2cccc(SN=S=NSc3ccc([N+](=O)[O-])cc3)c2)cc1	–	25.4 µM (inactive)	38.5 µM (inactive)	39.3 µM (inactive)	10.2 µM (inactive)	25.2 µM (inactive)	28 µM (inactive)	11.1 µM (inactive)	58.3 µM (inactive)	33.2 µM (inactive)	–	17.1 µM (inactive)	94.8 µM (inactive)	48.8 µM (inactive)	23.8 µM (inactive)	46.5 µM (inactive)	45.3 µM (inactive)	28.2 µM (inactive)	33 µM (inactive)
O=C(c1ccco1)N(C(=S)OCc1ccccn1)c1ccccc1	36 µM (inactive)	> 100 µM (inactive)	> 100 µM (inactive)	13.3 µM (inactive)	> 100 µM (inactive)	> 100 µM (inactive)	62.5 µM (inactive)	25.1 µM (inactive)	> 100 µM (inactive)	> 100 µM (inactive)	–	> 100 µM (inactive)	> 100 µM (inactive)	16 µM (inactive)	43.9 µM (inactive)	> 100 µM (inactive)	> 100 µM (inactive)	> 100 µM (inactive)	> 100 µM (inactive)
CC(C)[C@H](NC(=O)[C@@H](O)[C@H](N)Cc1ccccc1)C(=O)N[C@@H](Cc1ccccc1)C(=O)O	–	> 100 µM (inactive)	> 100 µM (inactive)	> 100 µM (inactive)	> 100 µM (inactive)	> 100 µM (inactive)	> 100 µM (inactive)	> 100 µM (inactive)	> 100 µM (inactive)	–	> 100 µM (inactive)	> 100 µM (inactive)	> 100 µM (inactive)	> 100 µM (inactive)	> 100 µM (inactive)	> 100 µM (inactive)	> 100 µM (inactive)	> 100 µM (inactive)	> 100 µM (inactive)
CC1=CC(c2ccccc2)n2c(nc3cc4ccccc4cc32)N1 (stereo unspecified)	> 100 µM (inactive)	> 100 µM (inactive)	> 100 µM (inactive)	> 100 µM (inactive)	> 100 µM (inactive)	> 100 µM (inactive)	> 100 µM (inactive)	> 100 µM (inactive)	> 100 µM (inactive)	> 100 µM (inactive)	> 100 µM (inactive)	> 100 µM (inactive)	> 100 µM (inactive)	–	> 100 µM (inactive)	> 100 µM (inactive)	> 100 µM (inactive)	> 100 µM (inactive)	> 100 µM (inactive)
COc1ccccc1NC(=O)C(=O)Cc1cnc2ccccc2n1	> 100 µM (inactive)	> 100 µM (inactive)	> 100 µM (inactive)	–	> 100 µM (inactive)	> 100 µM (inactive)	> 100 µM (inactive)	> 100 µM (inactive)	> 100 µM (inactive)	> 100 µM (inactive)	41 µM (inactive)	> 100 µM (inactive)	> 100 µM (inactive)	–	> 100 µM (inactive)	> 100 µM (inactive)	> 100 µM (inactive)	> 100 µM (inactive)	> 100 µM (inactive)
C/C(=N/NC(=S)N(Cc1ccccn1)Cc1ccccn1)c1cnccn1	–	1.26 µM (inactive)	0.962 µM (active)	0.189 µM (active)	0.0948 µM (active)	0.897 µM (active)	0.0242 µM (active)	0.231 µM (active)	6.46 µM (inactive)	0.0303 µM (active)	3.43 µM (inactive)	3.41 µM (inactive)	9.84 µM (inactive)	0.594 µM (active)	–	0.0861 µM (active)	0.47 µM (active)	0.126 µM (active)	0.418 µM (active)
CS/C(=N\Nc1cnc2ccccc2n1)NS(=O)(=O)c1cc(C)c(Cl)cc1Cl	> 100 µM (inactive)	> 100 µM (inactive)	> 100 µM (inactive)	29 µM (inactive)	> 100 µM (inactive)	> 100 µM (inactive)	84.7 µM (inactive)	> 100 µM (inactive)	> 100 µM (inactive)	> 100 µM (inactive)	43.2 µM (inactive)	–	43.3 µM (inactive)	> 100 µM (inactive)	33.9 µM (inactive)	> 100 µM (inactive)	> 100 µM (inactive)	88.7 µM (inactive)	> 100 µM (inactive)
C[C@H]1CC[C@@H]2[C@@H](C)[C@H]3[C@H](C[C@H]4[C@@H]5CC=C6C[C@@H](O)CC[C@]6(C)[C@H]5C[C@H](O)[C@]34C)N2C1	> 100 µM (inactive)	> 100 µM (inactive)	> 100 µM (inactive)	> 100 µM (inactive)	> 100 µM (inactive)	> 100 µM (inactive)	> 100 µM (inactive)	> 100 µM (inactive)	> 100 µM (inactive)	> 100 µM (inactive)	> 100 µM (inactive)	> 100 µM (inactive)	> 100 µM (inactive)	> 100 µM (inactive)	> 100 µM (inactive)	> 100 µM (inactive)	> 100 µM (inactive)	–	> 100 µM (inactive)
c1cn[nH]c1 [PYRAZOLE]	> 10 µM (inactive)	–	> 10 µM (inactive)	> 10 µM (inactive)	> 10 µM (inactive)	> 10 µM (inactive)	> 10 µM (inactive)	> 10 µM (inactive)	> 10 µM (inactive)	> 10 µM (inactive)	> 10 µM (inactive)	> 10 µM (inactive)	> 10 µM (inactive)	> 10 µM (inactive)	> 10 µM (inactive)	> 10 µM (inactive)	–	> 10 µM (inactive)	> 10 µM (inactive)
